What is called inhibition is the change of the read-out against control, counted positive when it falls. Lower therefore signals little suppression.

The target in this experiment is T1, human Fatty Acid Synthase (Homo sapiens, UniProt P49327).
T1 construct: made in house
In words: Human FAS enzyme assay (decrease in NADPH fluorescence). The format is biochemical. To be noted: for inhibition at 100 µM: % inhibition at a concentration of 100 micromolar; for IC50s in the range of about 0.001 μM to about 30 μM: compounds excluded from the claims by proviso. A digest of the protocol:
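Readout: decrease in NADPH fluorescence (340 nm ex, 460 nm em) after 60 min at RT, background-subtracted against a read taken before substrate. Substrate mix contained 500 μM malonyl-CoA and 150 μM acetyl-CoA. It was added after 15 min enzyme (0.4 μg in-house human FAS)–compound–NADPH preincubation in Tris pH 7.5 buffer; % inhibition was fitted to IC50.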

T1 sequence (P49327 whole entry): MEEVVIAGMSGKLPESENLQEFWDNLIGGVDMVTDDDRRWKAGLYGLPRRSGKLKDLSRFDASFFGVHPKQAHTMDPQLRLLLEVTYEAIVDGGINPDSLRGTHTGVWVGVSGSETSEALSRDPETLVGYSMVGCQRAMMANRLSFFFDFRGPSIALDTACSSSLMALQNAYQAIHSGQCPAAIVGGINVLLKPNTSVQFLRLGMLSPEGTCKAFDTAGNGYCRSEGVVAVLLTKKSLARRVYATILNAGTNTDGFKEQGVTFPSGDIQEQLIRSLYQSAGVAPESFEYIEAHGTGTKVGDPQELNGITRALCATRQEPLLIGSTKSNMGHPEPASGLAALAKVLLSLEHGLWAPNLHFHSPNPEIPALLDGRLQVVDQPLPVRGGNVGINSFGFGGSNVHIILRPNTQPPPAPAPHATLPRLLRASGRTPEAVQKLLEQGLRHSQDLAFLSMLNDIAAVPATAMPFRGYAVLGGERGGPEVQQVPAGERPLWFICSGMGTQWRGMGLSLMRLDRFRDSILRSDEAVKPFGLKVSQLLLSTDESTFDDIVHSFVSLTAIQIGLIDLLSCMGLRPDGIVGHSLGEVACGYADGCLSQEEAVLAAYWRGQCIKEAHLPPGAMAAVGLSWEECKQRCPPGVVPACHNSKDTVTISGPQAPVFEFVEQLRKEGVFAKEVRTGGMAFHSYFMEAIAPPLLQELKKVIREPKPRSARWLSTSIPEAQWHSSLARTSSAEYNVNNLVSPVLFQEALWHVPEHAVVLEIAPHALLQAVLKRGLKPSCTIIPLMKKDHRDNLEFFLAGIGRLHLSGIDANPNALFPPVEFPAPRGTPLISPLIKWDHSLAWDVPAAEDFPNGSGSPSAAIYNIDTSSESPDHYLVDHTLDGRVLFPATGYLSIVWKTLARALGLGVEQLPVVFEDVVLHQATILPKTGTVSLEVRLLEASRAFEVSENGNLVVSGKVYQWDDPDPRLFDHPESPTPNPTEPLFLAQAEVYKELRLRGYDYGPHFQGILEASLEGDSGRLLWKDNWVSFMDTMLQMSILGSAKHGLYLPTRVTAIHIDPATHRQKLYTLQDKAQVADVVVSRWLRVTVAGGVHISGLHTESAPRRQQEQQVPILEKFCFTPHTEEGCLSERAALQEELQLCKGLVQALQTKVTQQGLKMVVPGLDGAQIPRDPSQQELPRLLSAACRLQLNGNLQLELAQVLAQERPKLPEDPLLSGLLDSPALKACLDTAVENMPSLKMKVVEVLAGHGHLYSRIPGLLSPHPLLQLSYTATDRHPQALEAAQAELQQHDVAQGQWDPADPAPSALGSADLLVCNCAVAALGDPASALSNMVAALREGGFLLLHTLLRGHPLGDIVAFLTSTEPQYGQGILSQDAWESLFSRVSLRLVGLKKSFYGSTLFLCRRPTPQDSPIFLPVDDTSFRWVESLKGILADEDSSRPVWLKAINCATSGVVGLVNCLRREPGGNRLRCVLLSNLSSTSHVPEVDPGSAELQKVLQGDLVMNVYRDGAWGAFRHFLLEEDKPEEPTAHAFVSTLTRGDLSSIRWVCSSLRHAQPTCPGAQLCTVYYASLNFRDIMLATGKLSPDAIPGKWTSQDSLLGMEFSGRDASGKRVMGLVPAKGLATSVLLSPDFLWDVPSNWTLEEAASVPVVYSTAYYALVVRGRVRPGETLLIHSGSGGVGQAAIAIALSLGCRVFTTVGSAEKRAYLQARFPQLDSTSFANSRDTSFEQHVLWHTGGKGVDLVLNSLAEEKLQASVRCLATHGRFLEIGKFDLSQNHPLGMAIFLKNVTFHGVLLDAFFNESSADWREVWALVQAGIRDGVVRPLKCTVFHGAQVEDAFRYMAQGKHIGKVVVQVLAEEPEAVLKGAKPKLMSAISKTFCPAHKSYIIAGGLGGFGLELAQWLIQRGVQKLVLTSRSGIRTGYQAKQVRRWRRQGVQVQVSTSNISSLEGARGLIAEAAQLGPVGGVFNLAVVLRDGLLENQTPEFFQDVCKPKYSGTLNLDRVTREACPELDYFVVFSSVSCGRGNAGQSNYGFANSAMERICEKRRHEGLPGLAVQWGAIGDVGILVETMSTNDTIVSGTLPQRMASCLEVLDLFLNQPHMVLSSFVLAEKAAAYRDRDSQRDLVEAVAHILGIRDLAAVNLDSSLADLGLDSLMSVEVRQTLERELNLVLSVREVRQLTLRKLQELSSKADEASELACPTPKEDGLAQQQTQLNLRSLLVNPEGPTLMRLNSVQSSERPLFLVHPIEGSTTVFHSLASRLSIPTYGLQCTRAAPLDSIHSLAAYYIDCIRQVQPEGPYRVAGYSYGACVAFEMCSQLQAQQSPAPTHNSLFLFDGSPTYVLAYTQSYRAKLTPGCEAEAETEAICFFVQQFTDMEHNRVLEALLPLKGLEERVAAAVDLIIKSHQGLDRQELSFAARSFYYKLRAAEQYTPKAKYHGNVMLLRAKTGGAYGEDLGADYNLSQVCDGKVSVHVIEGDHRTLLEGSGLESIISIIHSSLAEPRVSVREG

`Cc1ccc(C(=O)N2CCC(c3ccc(C#N)cc3)CC2)cc1NS(=O)(=O)CCCNCc1cccnc1` [Example 141, N-[5-[4-(4-cyanophenyl)piperidine-1-carbonyl]-2-methyl-phenyl]-3-(pyridin-3-ylmethylamino)propane-1-sulfonamide] showed an inhibition at 100 µM of 93%.
Consider `CCn1ncc(S(=O)(=O)Nc2cc(C(=O)N3CCC(c4ccc(C#N)cc4)CC3)ccc2C)c1C` [Example 142, N-[5-[4-(4-cyanophenyl)piperidine-1-carbonyl]-2-methyl-phenyl]-1-ethyl-5-methyl-pyrazole-4-sulfonamide], for which the inhibition at 100 µM came to 98%.
As to `Cc1ccc(C(=O)N2CCC(c3ccc(C#N)cc3)CC2)cc1NS(=O)(=O)c1cccc(C(=O)N2CCOCC2)c1` [Example 97, N-[5-[4-(4-cyanophenyl)piperidine-1-carbonyl]-2-methyl-phenyl]-3-(morpholine-4-carbonyl)benzenesulfonamide], the inhibition at 100 µM was 88%.
`Cc1ccc(C(=O)N2CCC(c3ccc(C#N)cc3)CC2)cc1NS(=O)(=O)c1ccc(NC(C)C)nc1` [Example 99, N-[5-[4-(4-cyanophenyl)piperidine-1-carbonyl]-2-methyl-phenyl]-6-(propan-2-ylamino)pyridine-3-sulfonamide]: at 100 µM the inhibition was 92%.
On the same count and under the same terms, as for `COc1ccccc1S(=O)(=O)Nc1cc(C(=O)N2CCC(c3ccc(C#N)cc3)CC2)ccc1C` [Example 25, N-[5-[4-(4-cyanophenyl)piperidine-1-carbonyl]-2-methyl-phenyl]-2-methoxy-benzenesulfonamide], the figure is 87%.
As for `Cc1ccc(C(=O)N2CCC(c3ccc(C#N)cc3)CC2)cc1NS(=O)(=O)CC(=O)N(C)C` [Example 91, 2-[[5-[4-(4-cyanophenyl)piperidine-1-carbonyl]-2-methyl-phenyl]sulfamoyl]-N,N-dimethyl-acetamide], the inhibition at 100 µM is 80%.
In the case of `CS(=O)(=O)Nc1ccc(F)c(C(=O)N2CCC(c3ccc(C#N)cc3)CC2)c1` [N-[3-[4-(4-cyanophenyl)piperidine-1-carbonyl]-4-fluorophenyl]methanesulfonamide], the “IC50s in the range of about 0.001 μM to about 30 μM” value (from here on “IC50s in the range”) is recorded as “do not have IC50s in the range of about 0.001 μM to about 30 μM”.
For the compound `CCCS(=O)(=O)Nc1cc(C(=O)N2CCC(c3ccc(C#N)cc3)CC2)c(C)cc1C` [Example 117, N-[5-[4-(4-cyanophenyl)piperidine-1-carbonyl]-2,4-dimethyl-phenyl]propane-1-sulfonamide], 100 µM produced 98% inhibition.
`Cc1ccc(C(=O)N2CCC(c3ccc(C#N)cc3)CC2)cc1NS(=O)(=O)C(C)CO` (stereo not drawn) [Example 138, N-[5-[4-(4-cyanophenyl)piperidine-1-carbonyl]-2-methyl-phenyl]-1-hydroxy-propane-2-sulfonamide] yielded an inhibition at 100 µM of 100%.
As to `Cc1ccc(NS(C)(=O)=O)cc1C(=O)N1CCC(c2ccc(C#N)cc2)CC1` [Example 7, N-[3-[4-(4-cyanophenyl)piperidine-1-carbonyl]-4-methyl-phenyl]methanesulfonamide], the inhibition at 100 µM was 78%.
In turn, `Cc1ccc(C(=O)N2CCC(c3ccc(C#N)cc3)CC2)cc1NS(=O)(=O)c1cccc(C(N)=O)c1` [Example 81, 3-[[5-[4-(4-cyanophenyl)piperidine-1-carbonyl]-2-methyl-phenyl]sulfamoyl]benzamide] showed an inhibition at 100 µM of 90%.
For `Cc1ccc(C(=O)N2CCC(c3ccc(C#N)cc3)CC2)cc1NS(=O)(=O)CC(=O)O` [Example 130, 2-[[5-[4-(4-cyanophenyl)piperidine-1-carbonyl]-2-methyl-phenyl]sulfamoyl]acetic acid], the inhibition at 100 µM worked out at 77%.
With `COC(=O)c1cccc(S(=O)(=O)Nc2cc(C(=O)N3CCC(c4ccc(C#N)cc4)CC3)ccc2C)c1` [Example 76, Methyl 3-[[5-[4-(4-cyanophenyl)piperidine-1-carbonyl]-2-methyl-phenyl]sulfamoyl]benzoate], 100 µM produced 97% inhibition.
Compound `Cc1cc(C)c(C(=O)N2CCC(c3ccc(C#N)cc3)CC2)cc1NS(=O)(=O)Cc1ccccc1` [Example 29, N-[5-[4-(4-cyanophenyl)piperidine-1-carbonyl]-2,4-dimethyl-phenyl]-1-phenyl-methanesulfonamide] returned an inhibition at 100 µM of 93%.
`Cc1ccc(C(=O)N2CCC(c3ccc(S(=O)(=O)N4CCCC4)cc3)CC2)cc1NS(C)(=O)=O` [N-[2-methyl-5-[4-(4-pyrrolidin-1-ylsulfonylphenyl)piperidine-1-carbonyl]phenyl]methanesulfonamide]: the “IC50s in the range” value is reported as “do not have IC50s in the range of about 0.001 μM to about 30 μM”.
Turning to `Cc1ccc(C(=O)N2CCC(c3ccc(C(=O)N4CCOCC4)cc3)CC2)cc1NS(C)(=O)=O` [Example 231, N-[2-methyl-5-[4-[4-(morpholine-4-carbonyl)phenyl]piperidine-1-carbonyl]phenyl]methanesulfonamide], the inhibition at 100 µM turned out to be 86.1%.
`Cc1ccc(C(=O)N2CCC(c3ccc(C#N)cc3)CC2)cc1NS(=O)(=O)c1c(C)nn(C)c1C` [Example 152, N-[5-[4-(4-cyanophenyl)piperidine-1-carbonyl]-2-methyl-phenyl]-1,3,5-trimethyl-pyrazole-4-sulfonamide] displayed an inhibition at 100 µM of 87%.
On the same count and under the same terms, in the case of `CC(=O)NCCCS(=O)(=O)Nc1cc(C(=O)N2CCC(c3ccc(C#N)cc3)CC2)ccc1C` [Example 136, N-[3-[[5-[4-(4-cyanophenyl)piperidine-1-carbonyl]-2-methyl-phenyl]sulfamoyl]propyl]acetamide] it was 94%.
With `Cc1ccc(C(=O)N2CCC(c3cccc(-c4cncs4)c3)CC2)cc1NS(C)(=O)=O` [N-[2-methyl-5-[4-[3-(1,3-thiazol-5-yl)phenyl]piperidine-1-carbonyl]phenyl]methanesulfonamide], the “IC50s in the range” value was “do not have IC50s in the range of about 0.001 μM to about 30 μM”.
As for `Cc1ccc(C(=O)N2CCC(c3ccc(C(=O)NC4CC4)cc3)CC2)cc1NS(C)(=O)=O` [Example 184, N-cyclopropyl-4-[1-(3-methanesulfonamido-4-methylbenzoyl)piperidin-4-yl]benzamide], the inhibition at 100 µM is 84%.
`Cc1ccc(C(=O)N2CCC(c3ccc(C#N)cc3)CC2)cc1NS(=O)(=O)CCCN` [Example 126, 3-amino-N-[5-[4-(4-cyanophenyl)piperidine-1-carbonyl]-2-methyl-phenyl]propane-1-sulfonamide]: the inhibition at 100 µM worked out at 87%.
